Test results from patent USRE44733E1, “6-mercapto-cyclodextrin derivatives:reversal agents for drug-induced neuromuscular block” (Merck Sharp & Dohme B.V., priority 1999, dated 2014).

System: neuromuscular block, induced by the muscle relaxant rocuronium bromide (Roc)
Assay: Reversal of neuromuscular blockade in anaesthetized guinea pigs in vivo
Method: Reversal of Neuromuscular Blockade in Anaesthetized Guinea Pigs in vivo
Male Dunkin-Hartley guinea pigs (bodyweight: 600-900 g) were anaesthetized by i.p. administration of 10 mg/kg pentobarbitone and 1000 mg/kg urethane. After tracheotomy, the animals were artificially ventilated using a Harvard small animal ventilator. A catheter was placed into the carotid artery for continuous monitoring of arterial blood pressure and the taking of blood samples for blood gas analysis. Heart rate was derived from the blood pressure signal. The sciatic nerve was stimulated (rectangular pulses of 0.5 ms duration at 10 s (0.1 Hz) intervals at a supramaximal voltage, using a Grass S88 Stimulator) and the force of M. gastrocnemius contractions was measured using a Grass FT03 force-displacement transducer. Contractions, blood pressure and heart rate were recorded on a multichannel Grass 7D recorder. Catheters were placed in both jugular veins. One catheter was used for the continuous infusion of a neuromuscular blocking agent. The infusion rate of the neuromuscular blocking agent was increased until a steady-state block of 85-90% was obtained. The other catheter was used for administration of increasing doses of the reversal agent. During continuous infusion of the neuromuscular blocking agent, single doses of increasing concentration of reversal agent were given. At the end of the experiment, the measured force of muscle contractions was plotted against the concentration of reversal agent, and using regression analysis techniques, the 50% reversal concentration was calculated. Results for the reversal of the neuromuscular block, induced by the muscle relaxant rocuronium bromide (Roc), by the 6-mercapto-cyclodextrin derivatives of Examples 1-19 are presented in Table I. For comparison, the reversal activity of the parent compounds β-cyclodextrin and γ-cyclodextrin are included as well.

In the case of `O=C([O-])CSC[C@H]1O[C@@H]2O[C@H]3[C@H](O)[C@@H](O)[C@@H](O[C@H]4[C@H](O)[C@@H](O)[C@@H](O[C@H]5[C@H](O)[C@@H](O)[C@@H](O[C@H]6[C@H](O)[C@@H](O)[C@@H](O[C@H]7[C@H](O)[C@@H](O)[C@@H](O[C@H]8[C@H](O)[C@@H](O)[C@@H](O[C@H]9[C@H](O)[C@@H](O)[C@@H](O[C@H]1[C@H](O)[C@H]2O)O[C@@H]9CSCC(=O)[O-])O[C@@H]8CSCC(=O)[O-])O[C@@H]7CSCC(=O)[O-])O[C@@H]6CSCC(=O)[O-])O[C@@H]5CSCC(=O)[O-])O[C@@H]4CSCC(=O)[O-])O[C@@H]3CSCC(=O)[O-].[Na+].[Na+].[Na+].[Na+].[Na+].[Na+].[Na+].[Na+]` [example 7, 6-Per-deoxy-6-per-carboxymethylthio-γ-cyclodextrin, Sodium Salt], the “concentration at maximum reversal (at conc.)” value (anaesthetized guinea pigs, rocuronium bromide steady-state block, dose of reversal agent at which % max reversal was seen) is reported as “(1.92) μmol · kg^−1”, the “% max reversal” value (anaesthetized guinea pigs, rocuronium bromide steady-state block, maximum reversal) is reported as 88% and the “ED50: dose producing 50% reversal of steady-state neuromuscular block” value (anaesthetized male Dunkin-Hartley guinea pigs, steady-state block of 85-90% by continuous rocuronium bromide infusion, reversal agent given by jugular vein catheter, M. gastrocnemius contractions) is reported as 0.21 µmol/kg.
